Test results reported in ChEMBL document CHEMBL1697781, “Assessment of the health effects of chemicals in humans: II. Construction of an adverse effects database for QSAR modeling” (Curr Drug Discov Technol, 2004).

Tests used:
Conditions in all cases: human; call rule not given here
Hepatotoxicity [1] = assay: FDA HLAED, liver enzyme composite activity
Hepatotoxicity [2] = assay: FDA HLAED, serum glutamic pyruvic transaminase (SGPT) increase
Hepatotoxicity [3] = assay: FDA HLAED, alkaline phosphatase increase

SMILES	Composite Activity - Active (Hepatotoxicity [1])	Composite Activity - Marginal (Hepatotoxicity [1])	further results
COc1cc2nc(N3CCN(C(=O)c4ccco4)CC3)nc(N)c2cc1OC [PRAZOSIN]	0	0	
C[C@]12C=CC(=O)C=C1CC[C@@H]1[C@@H]2C(=O)C[C@@]2(C)[C@H]1CC[C@]2(O)C(=O)CO [PREDNISONE]	0	0	
CCC1(c2ccccc2)C(=O)NCNC1=O [PRIMIDONE]	0	0	
CCCN(CCC)S(=O)(=O)c1ccc(C(=O)O)cc1 [PROBENECID]	0	0	
CNNCc1ccc(C(=O)NC(C)C)cc1 [PROCARBAZINE]	0	0	
CCCc1cc(=O)[nH]c(=S)[nH]1 [PROPYLTHIOURACIL]			Composite Activity - Active (Hepatotoxicity [1]; Liver): 0; Composite Activity - Marginal (Hepatotoxicity [1]; Liver): 0
C=C[C@H]1C[N@@]2CC[C@H]1C[C@@H]2[C@@H](O)c1ccnc2ccc(OC)cc12 [QUINIDINE]	0	0	
CC(=O)S[C@@H]1CC2=CC(=O)CC[C@]2(C)[C@H]2CC[C@@]3(C)[C@@H](CC[C@@]34CCC(=O)O4)[C@H]12 [SPIRONOLACTONE]	0	0	
Nc1ccc(S(=O)(=O)Nc2ncccn2)cc1 [SULFADIAZINE]			Composite Activity - Active (Hepatotoxicity [1]; Liver): 0; Composite Activity - Marginal (Hepatotoxicity [1]; Liver): 0
O=C(O)c1cc(/N=N/c2ccc(S(=O)(=O)Nc3ccccn3)cc2)ccc1O [SULFASALAZINE]	1	0	SGPT Increase - Activity Score (Hepatotoxicity [2]): Active; SGPT Increase - Index Value (Hepatotoxicity [2]): 4; SGPT Increase - Number of Reports (Hepatotoxicity [2]): >= 4
CN(C)[C@@H]1C(O)=C(C(N)=O)C(=O)[C@@]2(O)C(O)=C3C(=O)c4c(O)cccc4[C@@](C)(O)[C@H]3C[C@@H]12 [TETRACYCLINE]	0	0	
CSc1ccc2c(c1)N(CCC1CCCCN1C)c1ccccc1S2 (stereo not given) [THIORIDAZINE]	0	1	Alkaline Phosphatase Increase - Activity Score (Hepatotoxicity [3]): Marginally Active; Alkaline Phosphatase Increase - Index Value (Hepatotoxicity [3]): 3.2; Alkaline Phosphatase Increase - Number of Reports (Hepatotoxicity [3]): >= 4
S=P(N1CC1)(N1CC1)N1CC1 [THIOTEPA]	0	0	
NC[C@H]1O[C@H](O[C@H]2[C@H](O)[C@@H](O[C@H]3O[C@H](CO)[C@@H](O)[C@H](N)[C@H]3O)[C@H](N)C[C@@H]2N)[C@H](N)C[C@@H]1O [TOBRAMYCIN]	0	0	
N[C@@H]1C[C@H]1c1ccccc1.N[C@H]1C[C@@H]1c1ccccc1 [TRANYLCYPROMINE]			Composite Activity - Active (Hepatotoxicity [1]; Liver): 0; Composite Activity - Marginal (Hepatotoxicity [1]; Liver): 0
CN1CCN(CCCN2c3ccccc3Sc3ccc(C(F)(F)F)cc32)CC1 [TRIFLUOPERAZINE]	0	0	
CC[C@]1(O)C[C@H]2CN(CCc3c([nH]c4ccccc34)[C@@](C(=O)OC)(c3cc4c(cc3OC)N(C=O)[C@H]3[C@@](O)(C(=O)OC)[C@H](OC(C)=O)[C@]5(CC)C=CCN6CC[C@]43[C@@H]65)C2)C1 [VINCRISTINE]	0	0	
